Patent US8609635B2, “Fused tricyclic silyl compounds and methods of use thereof for the treatment of viral diseases” (priority 2010, dated 2013)
Like-named read-outs stand apart in the source and are kept apart here.

Experiments:
[1] = system: HCV chimeric replicon with NS5A of genotype 4a (DQ41878); test: Cell-based HCV replicon assay (TaqMan), chimeric replicon genotype 4a (DQ41878); details: read-out: HCV replicon EC50 4a (DQ41878)
Method: (§1) Measurement of inhibition by compounds of the present invention was performed using the HCV replicon system. Several different replicons encoding different HCV genotypes or mutations were used. In addition, potency measurements were made using different formats of the replicon assay, including different ways of measurements and different plating formats. See Jan M. Vrolijk et al., A replicons-based bioassay for the measurement of interferons in patients with chronic hepatitis C, 110 J. VIROLOGICAL METHODS 201 (2003); Steven S. Carroll et al., Inhibition of Hepatitis C Virus RNA Replication by 2′-Modified Nucleoside Analogs, 278(14) J. BIOLOGICAL […] 11979 (2003). However, the underlying principles are common to all of these determinations, and are outlined below.
(§2) Compounds of the present invention were assayed for cell-based anti-HCV activity using the following protocol. Replicon cells were seeded at 5000 cells/well in 96-well collagen I-coated Nunc plates in the presence of the test compound. Various concentrations of test compound, typically in 10 serial 2-fold dilutions, were added to the assay mixture, with the starting concentration ranging from 250 μM to 1 μM. The final concentration of DMSO was 0.5%, fetal bovine serum was 5%, in the assay media. Cells were harvested on day 3 by the addition of 1× cell lysis buffer (Ambion cat #8721). The replicon RNA level was measured using real time PCR (TaqMan® assay). The amplicon was located in 5B. The PCR primers were: 5B.2F, […] (SEQ. ID NO. 1); 5B.2R, […] (SEQ. ID NO. 2); the probe sequence was FAM-labeled […] (SEQ. ID NO. 3). GAPDH RNA was used as endogenous control and was amplified in the same reaction as NS5B (multiplex PCR) using primers and VIC-labeled probe recommended by the manufacturer (PE Applied Biosystem). The real-time RT-PCR reactions were run on ABI PRISM 7900HT Sequence Detection System using the following program: 48° C. for 30 minutes, 95° C. for 10 minutes, 40 cycles of 95° C. for 15 sec, 60° C. for 1 minute. The ΔCT values (CT5B-CTGAPDH) were plotted against the concentration of test compound and fitted to the sigmoid dose-response model using XLfit4 (MDL). […] Alternatively, to quantitate the absolute amount of replicon RNA, a standard curve was established by including serially diluted T7 transcripts of replicon RNA in the Taqman assay. All TaqMan® reagents were from PE Applied Biosystems. Such an assay procedure was described in detail in e.g. Malcolm et al., Antimicrobial Agents and Chemotherapy 50: 1013-1020 (2006).
(§3) Wherein gt1a_H77 was prepared as described in Yi et al., J Virol. 2004, 78(15):7904-15; gt1b_con1 was prepared as described in Lohmann et al., Science 1999, 285(5424):110-3; and gt2a_JFH was prepared as described in Kato et al., Gastroenterology. 2003, 125(6):1808-17. Chimeric replicons contain NS5A from patient isolates of genotypes 1a, 1b, 2b, 3a and 4a as indicated.

[2] = system: HCV chimeric replicon with NS5A of genotype 2b (AB03090); test: Cell-based HCV replicon assay (TaqMan), chimeric replicon genotype 2b (AB03090); details: replicon RNA by TaqMan, day 3
Method: as §1, §2, §3

[3] = system: HCV chimeric replicon with NS5A of genotype 3a (NC00982); test: Cell-based HCV replicon assay (TaqMan), chimeric replicon genotype 3a (NC00982); details: replicon RNA by TaqMan, day 3
Method: as §1, §2, §3

[4] = system: HCV replicon gt2a_JFH; test: Cell-based HCV replicon assay (TaqMan), genotype 2a (JFH); details: replicon 2a (JFH), replicon RNA by TaqMan, day 3
Method: as §1, §2, §3

[5] = system: HCV replicon gt1a_H77; test: Cell-based HCV replicon assay (TaqMan), genotype 1a (H77); details: replicon 1a (H77), replicon RNA by TaqMan, day 3
Method: as §1, §2, §3

[6] = system: HCV replicon gt1b_con1; test: Cell-based HCV replicon assay (TaqMan), genotype 1b (Con1); details: replicon 1b (Con1), replicon RNA by TaqMan, day 3
Method: as §1, §2, §3

[7] = system: HCV replicon 1a (Y93H) mutant; test: Cell-based HCV replicon assay (TaqMan), genotype 1a mutant Y93H; details: read-out: HCV replicon EC50 1a (Y93H)
Method: as §1, §2, §3

[8] = system: HCV replicon 1a (L31V) mutant; test: Cell-based HCV replicon assay (TaqMan), genotype 1a mutant L31V; details: read-out: HCV replicon EC50 1a (L31V)
Method: as §1, §2, §3

[9] = chimeric replicon 4a (DQ41878), replicon RNA by TaqMan, day 3
[10] = read-out: HCV replicon EC50 2b (AB03090), chimeric replicon 2b (AB03090)
[11] = read-out: HCV replicon EC50 3a (NC00982), chimeric replicon 3a (NC00982)
[12] = replicon 1a mutant Y93H, replicon RNA by TaqMan, day 3
[13] = Hepatitis C virus, 72 h, read-out: HCV replicon EC50 2b (AB03090), chimeric replicon 2b (AB03090)
[14] = Hepatitis C virus, 72 h, read-out: HCV replicon EC50 3a (NC00982), chimeric replicon 3a (NC00982)

`COC(=O)N[C@H](C(=O)N1C[Si](C)(C)C[C@H]1c1ncc(-c2ccc(-c3ccc4c(ccc5nc([C@@H]6CC(F)(F)CN6C(=O)[C@@H](NC(=O)OC)C(C)C)[nH]c54)c3)cc2)[nH]1)C(C)C` [Compound 94] gave an EC50 [1, 9] of 0.02 nM, an EC50 [2, 10] of 129 nM and an EC50 [3, 11] of 0.2 nM. The EC50 [4] was 0.03 nM, the EC50 [5] was 0.008 nM and the EC50 [6] was 0.002 nM. It also gave an EC50 [7, 12] of 65 nM and an EC50 ([8]; replicon 1a mutant L31V, replicon RNA by TaqMan, day 3) of 10 nM.

`COC(=O)N[C@H](C(=O)N1CC(F)(F)C[C@H]1c1ncc(-c2ccc(-c3ccc4c(ccc5nc([C@@H]6C[Si](C)(C)CN6C(=O)[C@@H](NC(=O)OC)C(C)C)[nH]c54)c3)cc2)[nH]1)C(C)C` [Compound 92] gave an EC50 [1, 9] of 0.02 nM, an EC50 [2, 10] of 48 nM and an EC50 [3, 11] of 0.35 nM. For the same molecule, the EC50 [4] was 0.02 nM, the EC50 [5] was 0.015 nM and the EC50 [6] was 0.003 nM. It also gave an EC50 [7, 12] of 46 nM.

In the case of `COC(=O)N[C@H](C(=O)N1CC[C@H](C)[C@H]1c1ncc(-c2ccc(-c3ccc4c(ccc5nc([C@@H]6C[Si](C)(C)CN6C(=O)[C@@H](NC(=O)OC)C(C)C)[nH]c54)c3)cc2)[nH]1)C(C)C` [Compound 96], the EC50 ([1]; Hepatitis C virus, 72 h) is reported as 0.936 nM, the EC50 [2, 13] is reported as 49.3 nM and the EC50 [3, 14] is reported as 0.099 nM. The EC50 ([4]; Hepatitis C virus, 72 h) was 0.013 nM, the EC50 ([5]; Hepatitis C virus, 72 h) was 0.04 nM and the EC50 ([6]; Hepatitis C virus, 72 h) was 0.004 nM. It also gave an EC50 ([7]; Hepatitis C virus, 72 h) of 51 nM and an EC50 ([8]; Hepatitis C virus, 72 h) of 1 nM.

Molecule `COC(=O)N[C@H](C(=O)N1C[Si](C)(C)C[C@H]1c1ncc(-c2ccc(-c3ccc4c(ccc5nc([C@@H]6CC(F)(F)CN6C(=O)[C@@H](NC(=O)OC)C(C)C)[nH]c54)c3)cc2)[nH]1)C(C)C` [Compound 54] has an EC50 ([1]; Hepatitis C virus, 72 h) of 0.02 nM, an EC50 [2, 13] of 128 nM and an EC50 [3, 14] of 0.18 nM. The EC50 ([4]; Hepatitis C virus, 72 h) was 0.03 nM, the EC50 ([5]; Hepatitis C virus, 72 h) was 0.009 nM and the EC50 ([6]; Hepatitis C virus, 72 h) was 0.002 nM. For the same molecule, the EC50 ([7]; Hepatitis C virus, 72 h) was 65 nM and the EC50 ([8]; Hepatitis C virus, 72 h) was 10 nM.

`COC(=O)N[C@H](C(=O)N1C[Si](C)(C)C[C@H]1c1nc2ccc3cc(-c4ccc(-c5cnc([C@@H]6[C@@H]7C[C@@H]([C@@H](F)[C@H]7F)N6C(=O)[C@@H](NC(=O)OC)C(C)C)[nH]5)cc4)ccc3c2[nH]1)C(C)C` [Compound 100] was tested, and the EC50 ([1]; Hepatitis C virus, 72 h) was less than 0.2 nM, the EC50 [3, 14] was 7.4 nM and the EC50 ([4]; Hepatitis C virus, 72 h) was 0.023 nM. For the same molecule, the EC50 ([5]; Hepatitis C virus, 72 h) was 0.043 nM, the EC50 ([6]; Hepatitis C virus, 72 h) was 0.002 nM and the EC50 ([7]; Hepatitis C virus, 72 h) was 204 nM. It also gave an EC50 ([8]; Hepatitis C virus, 72 h) of 117 nM.

With `COC(=O)N[C@H](C(=O)N1C[Si](C)(C)C[C@H]1c1ncc(-c2ccc(-c3ccc4c(ccc5nc([C@@H]6CC(F)CN6C(=O)[C@@H](NC(=O)OC)C(C)C)[nH]c54)c3)cc2)[nH]1)C(C)C` (some centres unmarked) [Compound 53] the EC50 ([1]; Hepatitis C virus, 72 h) was 0.1 nM, the EC50 [3, 14] was 0.09 nM and the EC50 ([4]; Hepatitis C virus, 72 h) was 0.026 nM. The EC50 ([5]; Hepatitis C virus, 72 h) was 0.016 nM, the EC50 ([6]; Hepatitis C virus, 72 h) was 0.003 nM and the EC50 ([7]; Hepatitis C virus, 72 h) was 10 nM. For the same molecule, the EC50 ([8]; Hepatitis C virus, 72 h) was 64 nM.

`COCCOC(=O)N[C@H](C(=O)N1CCC(F)(F)C[C@H]1c1ncc(-c2ccc(-c3ccc4c(ccc5nc([C@@H]6C[Si](C)(C)CN6C(=O)[C@@H](NC(=O)OCCOC)C(C)C)[nH]c54)c3)cc2)[nH]1)C(C)C` [Compound 87] showed an EC50 ([1]; Hepatitis C virus, 72 h) greater than 100 nM, an EC50 [3, 14] greater than 100 nM and an EC50 ([4]; Hepatitis C virus, 72 h) greater than 10 nM. The EC50 ([5]; Hepatitis C virus, 72 h) was greater than 1 nM, the EC50 ([6]; Hepatitis C virus, 72 h) was 2.5 nM and the EC50 ([7]; Hepatitis C virus, 72 h) was greater than 1000 nM. It also gave an EC50 ([8]; Hepatitis C virus, 72 h) greater than 1000 nM.

`COC(=O)N[C@H](C(=O)N1C[Si](C)(C)C[C@H]1c1ncc(-c2ccc(-c3ccc4c(ccc5nc([C@@H]6CC(F)(F)CN6C(=O)[C@@H](NC(=O)OC)C(C)C)[nH]c54)c3)nc2)[nH]1)C(C)C` [Compound 66] gave an EC50 [2, 13] greater than 100 nM, an EC50 [3, 14] of 0.15 nM and an EC50 ([4]; Hepatitis C virus, 72 h) of 0.08 nM. For the same molecule, the EC50 ([5]; Hepatitis C virus, 72 h) was 0.002 nM, the EC50 ([6]; Hepatitis C virus, 72 h) was 0.005 nM and the EC50 ([7]; Hepatitis C virus, 72 h) was 260 nM. The EC50 ([8]; Hepatitis C virus, 72 h) was 32 nM.

`COC(=O)N[C@H](C(=O)N1CCC(F)(F)C[C@H]1c1ncc(-c2ccc(-c3ccc4c(ccc5nc([C@@H]6C[Si](C)(C)CN6C(=O)[C@@H](NC(=O)OC)C(C)C)[nH]c54)c3)cc2)[nH]1)C(C)C` [Compound 85] gave an EC50 ([1]; Hepatitis C virus, 72 h) of 1.16 nM, an EC50 [3, 14] of 0.69 nM and an EC50 ([4]; Hepatitis C virus, 72 h) of 0.065 nM. It also gave an EC50 ([5]; Hepatitis C virus, 72 h) of 0.102 nM, an EC50 ([6]; Hepatitis C virus, 72 h) of 0.009 nM and an EC50 ([7]; Hepatitis C virus, 72 h) of 728 nM. For the same molecule, the EC50 ([8]; Hepatitis C virus, 72 h) was 89 nM.

In the case of `COC(=O)N[C@H](C(=O)N1C[Si](C)(C)C[C@H]1c1nc2ccc3cc(-c4ccc(-c5cnc([C@@H]6C[C@H]7C[C@H]7N6C(=O)[C@@H](NC(=O)OC)C(C)C)[nH]5)cc4)ccc3c2[nH]1)C(C)C` [Compound 97], the EC50 ([1]; Hepatitis C virus, 72 h) is reported as 0.029 nM, the EC50 [2, 13] is reported as 17.1 nM and the EC50 [3, 14] is reported as 0.09 nM. For the same molecule, the EC50 ([4]; Hepatitis C virus, 72 h) was 0.005 nM, the EC50 ([5]; Hepatitis C virus, 72 h) was 0.005 nM and the EC50 ([6]; Hepatitis C virus, 72 h) was 0.002 nM. It also gave an EC50 ([7]; Hepatitis C virus, 72 h) of 30 nM and an EC50 ([8]; Hepatitis C virus, 72 h) of 15 nM.
